Assay results as given in patent US20150119442A1, “Biocide agents against marine woodborers” (Teredo Marine Protection ApS, priority 2008, published 2015).
Like-named read-outs stand apart in the source and are kept apart here.

Columns and labels:
[1] = for Leaching of EDDS, specimen with end sealing / Leaching of EDDS, specimen without end sealing: after one week, mean ± SD
From the text: The aim of this example is to show the leaching of EDDS in sea water, as well as the effect of the pH in sea water on the leaching.
Wood specimens were produced by the Danish Technological Institute, and made of sap wood of Pinus sylvestris in the dimension: 15×25×50 mm^3.
The impregnating solution used was an aqueous solution of 5% Octaquest® E30 (Innospec Limited, contains a 30% solution of trisodium-EDDS in water), 5% sodium carbonate and 5% ethanol. pH was adjusted to 4.5 with hydrochloric acid.
Three different sea water solutions were prepared using artificial sea water salt mix (Tropic Marin® Sea Salt) at half the recommended concentration (15 g/L corresponding to a specific gravity of 1010 kg/m^3), normal concentration (30 g/L corresponding to a specific gravity of 1019 kg/m^3) and half concentration with pH adjusted to 6. Specific gravity of sea water in the oceans range between 1020 and 1030 kg/m^3. For each solution six containers were prepared each containing five specimens. Half of the specimens in each solution were end sealed at both ends using Conclad 300 2-K membrane (product no. 5305A, Condor Kemi A/S, Denmark). The end seal was applied to evaluate the radial leaching of the impregnating agent in order to simulate the surfaces exposed in harbour piers.
The specimens were placed in the containers and 500 ml of sea water solution was added to each container.
After one week the water was collected and analysed for EDDS content by HPLC-UV; detection at 254 nm. The method used involved a reverse phase column and online complexing of EDDS with Cu(II)-ions. Quantifications were made from external standards (reference material used was “−30% Na3EDDS in water” from Fluka).

[2] = tested on: marine woodborers; assay: Protective effectiveness against marine borers, EN 275 harbour exposure; format: in vivo, shipworm; conditions: 6 months; compared to control subjects
Protocol: The guidelines and recommendations in EN 275: 1992—Wood preservatives—Determination of the protective effectiveness against marine borers were followed unless otherwise stated.
Wood specimens were made of sapwood of Pinus sylvestris in the dimensions: 200×75×25 mm3, with a hole ø25 mm in the centre. The specimens were produced by the Danish Technological Institute.
The biocide-impregnating solution was prepared in different compositions according to Table 4. pH was adjusted with hydrochloric acid, and 10 specimens were used for each composition of biocide-impregnating solution and each harbour exposure site.
The specimens were attached to test racks and placed in two different harbours in Denmark: Skagen (northern part of Jutland) and Rudkøbing (Langeland) on 26 and 24 Apr. 2007, respectively (FIG. 1). The specimens were collected again ˜6 months later on 23 and 25 Oct. 2007, respectively.
The attack by marine borers was evaluated by cutting up the specimen in five pieces and recording the number of borers present and the percentage of the area which they had attacked.

Which results are given for `O=C(O)C[C@H](NCCN[C@@H](CC(=O)O)C(=O)O)C(=O)O` [EDDS, (S,S)-ethylenediamine-disuccinate]?
Leaching ([1]; all sea water solutions, in seven days): about 30%; Leaching from end sealed specimens compared with specimens without end sealing ([1]; all three types of sea water): significantly lower; Leaching of EDDS, specimen with end sealing ([1]; sea water normal conc.): 26.48 ± 0.92%; Leaching of EDDS, specimen without end sealing ([1]; sea water normal conc.): 33.56 ± 0.62%; Leaching of EDDS, specimen with end sealing ([1]; sea water ½ conc. pH 6): 30.07 ± 0.70%; Leaching of EDDS, specimen without end sealing ([1]; sea water ½ conc. pH 6): 36.14 ± 0.89%; Leaching of EDDS, specimen with end sealing ([1]; sea water ½ conc.): 32.08 ± 1.01%; Leaching of EDDS, specimen without end sealing ([1]; sea water ½ conc.): 34.08 ± 0.59%; Effectiveness against attack of shipworm [2]: effective
